Assay results from PubChem BioAssay (NCI).
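48-hour exposure; five concentrations; linearly interpolated endpoints. GI50: concentration for 50% inhibition of growth. TGI is the concentration that stops growth completely.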

Experiments:
Test in all cases: growth of human tumour cells (NCI), 48 h
LOX IMVI melanoma = system: LOX IMVI melanoma
786-0 renal = system: 786-0 renal
MALME-3M melanoma = system: MALME-3M melanoma
NCI-H522 lung = system: NCI-H522 lung
OVCAR-3 ovarian = system: OVCAR-3 ovarian
MDA-MB-231 breast = system: MDA-MB-231 breast
HL-60(TB) leukemia = system: HL-60(TB) leukemia
MOLT-4 leukemia = system: MOLT-4 leukemia
HOP-62 NSCLC = system: HOP-62 NSCLC
ACHN renal = system: ACHN renal
SK-OV-3 ovarian = system: SK-OV-3 ovarian
NCI/ADR-RES ovarian = system: NCI/ADR-RES ovarian
SW-620 colon = system: SW-620 colon
MDA-MB-468 breast = system: MDA-MB-468 breast
K-562 leukemia = system: K-562 leukemia
MDA-MB-435 = system: MDA-MB-435
COLO 205 colon = system: COLO 205 colon
A498 renal = system: A498 renal
HT29 colon = system: HT29 colon
OVCAR-5 ovarian = system: OVCAR-5 ovarian
PC-3 prostate = system: PC-3 prostate
UACC-257 melanoma = system: UACC-257 melanoma
SF-295 CNS = system: SF-295 CNS
SN12C renal = system: SN12C renal
CAKI-1 renal = system: CAKI-1 renal
UO-31 renal = system: UO-31 renal
SK-MEL-5 melanoma = system: SK-MEL-5 melanoma
TK-10 renal = system: TK-10 renal
RXF 393 renal = system: RXF 393 renal
SNB-75 CNS = system: SNB-75 CNS
T-47D breast = system: T-47D breast
HOP-92 NSCLC = system: HOP-92 NSCLC
SNB-19 CNS = system: SNB-19 CNS
MCF7 breast = system: MCF7 breast
HCC-2998 colon = system: HCC-2998 colon
A549 NSCLC = system: A549 NSCLC
U251 CNS = system: U251 CNS
RPMI-8226 leukemia = system: RPMI-8226 leukemia
BT-549 breast = system: BT-549 breast
SF-268 CNS = system: SF-268 CNS
IGROV1 ovarian = system: IGROV1 ovarian
OVCAR-8 ovarian = system: OVCAR-8 ovarian
NCI-H226 lung = system: NCI-H226 lung
UACC-62 melanoma = system: UACC-62 melanoma
HCT-15 colon = system: HCT-15 colon
SR leukemia = system: SR leukemia
SF-539 CNS = system: SF-539 CNS
SK-MEL-28 melanoma = system: SK-MEL-28 melanoma
NCI-H460 lung = system: NCI-H460 lung
HS 578T breast = system: HS 578T breast
HCT-116 colon = system: HCT-116 colon
SK-MEL-2 melanoma = system: SK-MEL-2 melanoma
CCRF-CEM leukemia = system: CCRF-CEM leukemia
EKVX NSCLC = system: EKVX NSCLC
OVCAR-4 ovarian = system: OVCAR-4 ovarian
M14 melanoma = system: M14 melanoma
DU-145 prostate = system: DU-145 prostate
NCI-H23 lung = system: NCI-H23 lung
KM12 colon = system: KM12 colon

Q: For CCOc1ccccc1[C@H]1C(C(=O)c2ccc(Cl)cc2)C2(N[C@@H]1c1ccccc1)C(=O)Nc1ccccc12 (stereo partly drawn), which GI50 (LOX IMVI melanoma) is on record?
A: 2.85 µM

Q: And the TGI (LOX IMVI melanoma)?
A: 10.3 µM

Q: And the GI50 (786-0 renal)?
A: 8.94 µM

Q: And the TGI (786-0 renal)?
A: > 39.8 µM

Q: What about the GI50 (MALME-3M melanoma) of the same compound?
A: 7.4 µM

Q: And the TGI (MALME-3M melanoma)?
A: 18.6 µM

Q: And the GI50 (NCI-H522 lung)?
A: 6.14 µM

Q: And the TGI (NCI-H522 lung)?
A: 22.8 µM

Q: And the GI50 (OVCAR-3 ovarian)?
A: 7.68 µM

Q: And the TGI (OVCAR-3 ovarian)?
A: > 39.8 µM

Q: And the GI50 (MDA-MB-231 breast)?
A: 5.37 µM

Q: And the TGI (MDA-MB-231 breast)?
A: 34.3 µM

Q: And the GI50 (HL-60(TB) leukemia)?
A: 5.6 µM

Q: And the TGI (HL-60(TB) leukemia)?
A: 32.4 µM

Q: And the GI50 (MOLT-4 leukemia)?
A: 4.68 µM

Q: And the TGI (MOLT-4 leukemia)?
A: > 39.8 µM

Q: And the GI50 (HOP-62 NSCLC)?
A: 18.9 µM

Q: And the TGI (HOP-62 NSCLC)?
A: > 39.8 µM

Q: And the GI50 (ACHN renal)?
A: 10.1 µM

Q: What about the TGI (ACHN renal) of the same compound?
A: > 39.8 µM

Q: What about the GI50 (SK-OV-3 ovarian) of the same compound?
A: 22.1 µM

Q: What about the TGI (SK-OV-3 ovarian) of the same compound?
A: > 39.8 µM

Q: What about the GI50 (NCI/ADR-RES ovarian) of the same compound?
A: 5.64 µM

Q: And the TGI (NCI/ADR-RES ovarian)?
A: 16.6 µM

Q: And the GI50 (SW-620 colon)?
A: 10.1 µM

Q: What about the TGI (SW-620 colon) of the same compound?
A: > 39.8 µM

Q: And the GI50 (MDA-MB-468 breast)?
A: 1.31 µM

Q: What about the TGI (MDA-MB-468 breast) of the same compound?
A: 8.19 µM

Q: And the GI50 (K-562 leukemia)?
A: 9.06 µM

Q: And the TGI (K-562 leukemia)?
A: > 39.8 µM

Q: And the GI50 (MDA-MB-435)?
A: 4.06 µM

Q: And the TGI (MDA-MB-435)?
A: 16.3 µM

Q: What about the GI50 (COLO 205 colon) of the same compound?
A: 6.82 µM

Q: What about the TGI (COLO 205 colon) of the same compound?
A: 14 µM

Q: What about the GI50 (A498 renal) of the same compound?
A: 7.7 µM

Q: And the TGI (A498 renal)?
A: 20.7 µM

Q: And the GI50 (HT29 colon)?
A: 7.26 µM

Q: And the TGI (HT29 colon)?
A: 36.1 µM

Q: And the GI50 (OVCAR-5 ovarian)?
A: 10.1 µM

Q: And the TGI (OVCAR-5 ovarian)?
A: > 39.8 µM

Q: What about the GI50 (PC-3 prostate) of the same compound?
A: 2.77 µM

Q: What about the TGI (PC-3 prostate) of the same compound?
A: > 39.8 µM

Q: What about the GI50 (UACC-257 melanoma) of the same compound?
A: 8.91 µM

Q: And the TGI (UACC-257 melanoma)?
A: > 39.8 µM

Q: And the GI50 (SF-295 CNS)?
A: 7.88 µM

Q: What about the TGI (SF-295 CNS) of the same compound?
A: > 39.8 µM

Q: What about the GI50 (SN12C renal) of the same compound?
A: 5.56 µM

Q: And the TGI (SN12C renal)?
A: 11.9 µM

Q: What about the GI50 (CAKI-1 renal) of the same compound?
A: 4.08 µM

Q: What about the TGI (CAKI-1 renal) of the same compound?
A: > 39.8 µM

Q: And the GI50 (UO-31 renal)?
A: 5.82 µM

Q: What about the TGI (UO-31 renal) of the same compound?
A: > 39.8 µM

Q: And the GI50 (SK-MEL-5 melanoma)?
A: 6.1 µM

Q: What about the TGI (SK-MEL-5 melanoma) of the same compound?
A: 12.2 µM

Q: What about the GI50 (TK-10 renal) of the same compound?
A: 15.6 µM

Q: And the TGI (TK-10 renal)?
A: > 39.8 µM

Q: And the GI50 (RXF 393 renal)?
A: 5.35 µM

Q: What about the TGI (RXF 393 renal) of the same compound?
A: 19.2 µM

Q: And the GI50 (SNB-75 CNS)?
A: 6.24 µM

Q: And the TGI (SNB-75 CNS)?
A: > 39.8 µM

Q: And the GI50 (T-47D breast)?
A: 6.48 µM

Q: And the TGI (T-47D breast)?
A: > 39.8 µM

Q: And the GI50 (HOP-92 NSCLC)?
A: 6.65 µM

Q: And the TGI (HOP-92 NSCLC)?
A: 29.3 µM

Q: What about the GI50 (SNB-19 CNS) of the same compound?
A: 16.6 µM

Q: And the TGI (SNB-19 CNS)?
A: > 39.8 µM

Q: And the GI50 (MCF7 breast)?
A: 6.78 µM

Q: And the TGI (MCF7 breast)?
A: > 39.8 µM

Q: What about the GI50 (HCC-2998 colon) of the same compound?
A: 7.9 µM

Q: And the TGI (HCC-2998 colon)?
A: 29.8 µM

Q: And the GI50 (A549 NSCLC)?
A: 10.4 µM

Q: And the TGI (A549 NSCLC)?
A: > 39.8 µM

Q: And the GI50 (U251 CNS)?
A: 13 µM

Q: What about the TGI (U251 CNS) of the same compound?
A: > 39.8 µM

Q: And the GI50 (RPMI-8226 leukemia)?
A: 8.82 µM

Q: What about the TGI (RPMI-8226 leukemia) of the same compound?
A: > 39.8 µM

Q: What about the GI50 (BT-549 breast) of the same compound?
A: 6.89 µM

Q: And the TGI (BT-549 breast)?
A: 22.8 µM

Q: And the GI50 (SF-268 CNS)?
A: 12.2 µM

Q: What about the TGI (SF-268 CNS) of the same compound?
A: > 39.8 µM

Q: And the GI50 (IGROV1 ovarian)?
A: 8.69 µM

Q: And the TGI (IGROV1 ovarian)?
A: > 39.8 µM

Q: What about the GI50 (OVCAR-8 ovarian) of the same compound?
A: 11.9 µM

Q: And the TGI (OVCAR-8 ovarian)?
A: > 39.8 µM

Q: And the GI50 (NCI-H226 lung)?
A: 5.44 µM

Q: And the TGI (NCI-H226 lung)?
A: 18.5 µM

Q: And the GI50 (UACC-62 melanoma)?
A: 4.65 µM

Q: And the TGI (UACC-62 melanoma)?
A: 18.2 µM

Q: What about the GI50 (HCT-15 colon) of the same compound?
A: 8.87 µM

Q: What about the TGI (HCT-15 colon) of the same compound?
A: > 39.8 µM

Q: What about the GI50 (SR leukemia) of the same compound?
A: 9.21 µM

Q: What about the TGI (SR leukemia) of the same compound?
A: > 39.8 µM

Q: And the GI50 (SF-539 CNS)?
A: 23.3 µM

Q: And the TGI (SF-539 CNS)?
A: > 39.8 µM

Q: And the GI50 (SK-MEL-28 melanoma)?
A: 17.4 µM

Q: And the TGI (SK-MEL-28 melanoma)?
A: > 39.8 µM

Q: And the GI50 (NCI-H460 lung)?
A: 8 µM

Q: And the TGI (NCI-H460 lung)?
A: 21.5 µM

Q: And the GI50 (HS 578T breast)?
A: 6.08 µM

Q: What about the TGI (HS 578T breast) of the same compound?
A: 22.9 µM

Q: And the GI50 (HCT-116 colon)?
A: 6.75 µM

Q: And the TGI (HCT-116 colon)?
A: > 39.8 µM

Q: What about the GI50 (SK-MEL-2 melanoma) of the same compound?
A: 7.37 µM

Q: And the TGI (SK-MEL-2 melanoma)?
A: 17.5 µM

Q: What about the GI50 (CCRF-CEM leukemia) of the same compound?
A: 29.2 µM

Q: And the TGI (CCRF-CEM leukemia)?
A: > 39.8 µM

Q: And the GI50 (EKVX NSCLC)?
A: 8.62 µM

Q: And the TGI (EKVX NSCLC)?
A: > 39.8 µM

Q: What about the GI50 (OVCAR-4 ovarian) of the same compound?
A: 14.8 µM

Q: What about the TGI (OVCAR-4 ovarian) of the same compound?
A: > 39.8 µM

Q: And the GI50 (M14 melanoma)?
A: 7.69 µM

Q: What about the TGI (M14 melanoma) of the same compound?
A: > 39.8 µM

Q: And the GI50 (DU-145 prostate)?
A: 13.1 µM

Q: And the TGI (DU-145 prostate)?
A: > 39.8 µM

Q: What about the GI50 (NCI-H23 lung) of the same compound?
A: 7.78 µM

Q: And the TGI (NCI-H23 lung)?
A: > 39.8 µM

Q: What about the GI50 (KM12 colon) of the same compound?
A: 11.3 µM

Q: And the TGI (KM12 colon)?
A: > 39.8 µM
